Where two headings read alike, the source gives them in different places.
Assays:
[1] = Solubility of different salt forms in water (HPLC of supernatant); settings: for Solubility at 25° C. / Solubility at 37° C.: purified water, 24 h; for solubility at 24 h: water, thermodynamic from solid
Procedure: The system was stirred in a water bath at 25° C. In addition, the same system was prepared by the same method and stirred at 37° C. After 24 h, the supernatant was taken for HPLC analysis.

[2] = Hygroscopic weight gain experiment (Chinese Pharmacopoeia 2020 hygroscopicity guideline); type: physicochemical; settings: for Hygroscopic weight gain: 25° C.±1° C. and 80%±2% RH
Procedure: Table 1 below is the definition and range of hygroscopicity for a drug after equilibration at 25° C.±1° C. and 80%±2% RH in Guidelines for Hygroscopicity Trials for Pharmaceuticals (Chinese Pharmacopoeia, 2020 Edition, Volume IV, page 485).
The strong hygroscopicity of a drug will seriously affect the flowability of the drug and even affect the stability of the drug. Therefore, according to the present application, a hygroscopic weight gain experiment was conducted on different salt forms of compound 1 as per the method described in Guidelines for Hygroscopicity Trials for Pharmaceuticals (Chinese Pharmacopoeia, 2020 Edition, Volume IV).

[3] = Interconversion between crystalline forms (slurry of two forms, DSC); type: physicochemical; settings: room temperature, 3 days
Procedure: Samples of two different crystalline forms were mixed and dissolved in a corresponding solvent of 5 mL, and the mixture was stirred at room temperature for 3 days and separated by centrifugation. The resulting solid was dried in vacuum at 40 ° C. The dried product was subjected to a DSC test to determine the composition of the crystalline form.

[4] = Stability of crystalline form I and II (HPLC purity; XRPD and DSC crystalline form); type: physicochemical
[5] = DVS profile (moisture sorption) of crystalline forms; type: physicochemical
[6] = Stability of crystalline form I and II (HPLC purity; XRPD and DSC crystalline form); type: physicochemical; remark: listed apart in the source
From the text: Samples were taken on day 0, day 10, and day 30 for XRPD and DSC detections to evaluate the physical stability and for HPLC purity detection to evaluate the chemical stability.

[7] = type: physicochemical
[8] = in the human body; cited from earlier work

Cc1ccc(S(=O)(=O)O)cc1.[2H]C(C)(C)C(N)C(=O)OC1CCC2(C)C(CCC3C2CCC2(C)C(C(C)=O)CCC32)C1 (stereo not drawn)
Solubility at 25° C. [1]: 810 µg/mL
Solubility at 37° C. [1]: 890 µg/mL
Hygroscopic weight gain [2]: 0%

CC(=O)O [Acetate]
Hygroscopic weight gain [2]: 0.4%

C1=Cc2cccc(OC[C@H]3CNCCO3)c2C1.O=S(=O)(O)c1ccccc1 [Benzenesulfonate]
Hygroscopic weight gain [2]: 0.2%

[2H]C(C)(C)[C@H](N)C(=O)O[C@@H]1CC[C@@]2(C)[C@@H](CC[C@@H]3[C@@H]2CC[C@]2(C)[C@@H](C(C)=O)CC[C@@H]32)C1 [Compound 1, L-valine-3-d, (3α,5α)-3-hydroxy-pregnan-20-one-3-yl ester]
solubility at 24 h ([1]; 25 °C): 10 µg/mL
Solubility at 37° C. [1]: Not detected

Cl.[2H]C(C)(C)[C@H](N)C(=O)O[C@@H]1CC[C@@]2(C)[C@@H](CC[C@@H]3[C@@H]2CC[C@]2(C)[C@@H](C(C)=O)CC[C@@H]32)C1 [Crystalline form III]
Final crystalline form ([3]; isopropyl acetate 5 ml): crystalline form I

Cl.[2H]C(C)(C)[C@H](N)C(=O)O[C@@H]1CC[C@@]2(C)[C@@H](CC[C@@H]3[C@@H]2CC[C@]2(C)[C@@H](C(C)=O)CC[C@@H]32)C1 [Crystalline form II]
Purity, High humidity (RH 92.5%) ([4]; day 5): 99.39%
Purity, High temperature (60° C.) ([4]; day 5): 99.28%
Purity, Illumination (4500 ± 500 Lux) ([4]; day 5): 99.57%
Purity, Illumination (4500 ± 500 Lux) ([4]; day 10): 99.68%
Purity, High humidity (RH 92.5%) ([4]; day 30): 99.37%
Purity, High temperature (60° C.) ([4]; day 30): 97.03%
DVS weight gain ([5]; relative humidity 50%): about 4%
Purity, High humidity (RH 92.5%) ([6]; day 0): 99.59%
Purity, High temperature (60° C.) ([6]; day 0): 99.59%
Purity, Illumination (4500 ± 500 Lux) ([6]; day 0): 99.59%
Purity, High humidity (RH 92.5%) ([6]; day 10): 99.65%
Purity, High temperature (60° C.) ([6]; day 10): 98.93%
Purity, Illumination (4500 ± 500 Lux) ([6]; day 30): 99.20%
Final crystalline form ([3]; isopropyl acetate 5 ml): crystalline form I

Cl.[2H]C(C)(C)[C@H](N)C(=O)O[C@@H]1CC[C@@]2(C)[C@@H](CC[C@@H]3[C@@H]2CC[C@]2(C)[C@@H](C(C)=O)CC[C@@H]32)C1 [Crystalline form IV]
Final crystalline form ([3]; n-heptane 5 ml): crystalline form IIL

Cl.[2H]C(C)(C)[C@H](N)C(=O)O[C@@H]1CC[C@@]2(C)[C@@H](CC[C@@H]3[C@@H]2CC[C@]2(C)[C@@H](C(C)=O)CC[C@@H]32)C1 [Crystalline form I]
Purity, High humidity (RH 92.5%) ([4]; day 5): 99.72%
Purity, High temperature (60° C.) ([4]; day 5): 99.78%
Purity, Illumination (4500 ± 500 Lux) ([4]; day 5): 99.78%
Purity, Illumination (4500 ± 500 Lux) ([4]; day 10): 99.82%
Purity, High humidity (RH 92.5%) ([4]; day 30): 99.78%
Purity, High temperature (60° C.) ([4]; day 30): 99.64%
DVS weight gain ([5]; relative humidity 90%): 1.2%
Purity, High humidity (RH 92.5%) ([6]; day 0): 99.77%
Purity, High temperature (60° C.) ([6]; day 0): 99.77%
Purity, Illumination (4500 ± 500 Lux) ([6]; day 0): 99.77%
Purity, High humidity (RH 92.5%) ([6]; day 10): 99.82%
Purity, High temperature (60° C.) ([6]; day 10): 99.77%
Purity, Illumination (4500 ± 500 Lux) ([6]; day 30): 99.65%
Hygroscopicity (summary statement) ([2]; summary of the polymorph comparison): non-hygroscopic

Cl.[2H]C(C)(C)[C@H](N)C(=O)O[C@@H]1CC[C@@]2(C)[C@@H](CC[C@@H]3[C@@H]2CC[C@]2(C)[C@@H](C(C)=O)CC[C@@H]32)C1 [Hydrochloride]
solubility at 24 h ([1]; 25 °C): 22700 µg/mL
solubility at 24 h ([1]; 37 °C): 46400 µg/mL
HPLC purity, High humidity/RH 92.5% ([7]; day 0): 100%
HPLC purity, High temperature/60° C. ([7]; day 0): 100%
HPLC purity, Illumination/4500 ± 500 Lux ([7]; day 0): 100%
HPLC purity, High humidity/RH 92.5% ([7]; day 7): 99.89%
HPLC purity, High temperature/60° C. ([7]; day 7): 99.89%
HPLC purity, Illumination/4500 ± 500 Lux ([7]; day 7): 99.89%
HPLC purity, High humidity/RH 92.5% ([7]; day 14): 99.89%
HPLC purity, High temperature/60° C. ([7]; day 14): 99.88%
HPLC purity, Illumination/4500 ± 500 Lux ([7]; day 14): 99.89%
Hygroscopic weight gain [2]: 0.2%

O=C(O)CC(O)C(=O)O.[2H]C(C)(C)C(N)C(=O)OC1CCC2(C)C(CCC3C2CCC2(C)C(C(C)=O)CCC32)C1.[2H]C(C)(C)C(N)C(=O)OC1CCC2(C)C(CCC3C2CCC2(C)C(C(C)=O)CCC32)C1 [L-Malate]
Solubility at 25° C. [1]: 1400 µg/mL
Solubility at 37° C. [1]: 2110 µg/mL
Hygroscopic weight gain [2]: 4.0%

O=P(O)(O)O.[2H]C(C)(C)C(N)C(=O)OC1CCC2(C)C(CCC3C2CCC2(C)C(C(C)=O)CCC32)C1.[2H]C(C)(C)C(N)C(=O)OC1CCC2(C)C(CCC3C2CCC2(C)C(C(C)=O)CCC32)C1 (stereo not drawn) [Phosphate]
Hygroscopic weight gain [2]: 4.9%

CC(=O)[C@H]1CC[C@H]2[C@@H]3CC[C@H]4C[C@H](O)CC[C@]4(C)[C@H]3CC[C@]12C [allopregnanolone, 3α-OH-5α-pregnan-20-one]
plasma half-life [8]: about 45 minutes

Maleate
Solubility at 25° C. [1]: 730 µg/mL
Solubility at 37° C. [1]: 1120 µg/mL
Hygroscopic weight gain [2]: 0%
